Data reported in patent publication US20060069132A1, “Azolecarboxamide herbicides” (priority 2004, published 2006).

What was measured:
[1] = test system: large crabgrass; experiment: Test A pre-/postemergence herbicide test; format: in vivo, Digitaria sanguinalis
In short: (§1)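 Both application timings were run together: directed soil spray over freshly planted seeds in sandy loam, and runoff spray onto 2–10 cm seedlings. Evaluation after ~10 days in greenhouse used a 0–100 visual scale versus untreated controls.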

[2] = test system: giant foxtail; experiment: Test A pre-/postemergence herbicide test; format: in vivo, Setaria faberi
In short: as §1

[3] = test system: velvetleaf; experiment: Test A pre-/postemergence herbicide test; format: in vivo, Abutilon theophrasti
In short: as §1

[4] = test system: woolly cupgrass; experiment: Test C pre-/postemergence herbicide test; format: in vivo, Eriochloa villosa; settings: for Cupgrass, Woolly plant response rating: Preemergence
In short: (§2)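 Emerged plants at the 1- to 4-leaf stage (2–18 cm), or freshly planted seeds, received test chemicals in a non-phytotoxic solvent mixture with surfactant. Response was visually scored against controls after 12 to 14 days in the greenhouse, on a 0 (no effect) to 100 (complete control) scale.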

[5] = test system: giant foxtail; experiment: Test C pre-/postemergence herbicide test; format: in vivo, Setaria faberi; settings: for Foxtail, Giant plant response rating: Preemergence
In short: as §2

[6] = test system: morningglory; experiment: Test C pre-/postemergence herbicide test; format: in vivo, Ipomoea coccinea; parameters: key to Plant response rating, Morningglory: 0 = no effect, 100 = complete control; settings: for Morningglory plant response rating: Preemergence
In short: as §2

[7] = test system: yellow nutsedge; experiment: Test C pre-/postemergence herbicide test; format: in vivo, Cyperus esculentus; settings: for Nutsedge, Yellow plant response rating: Preemergence
In short: as §2

[8] = test system: soybean; experiment: Test C pre-/postemergence herbicide test; format: in vivo, Glycine max; settings: for Soybean plant response rating: Preemergence
In short: as §2

[9] = Postemergence, 500 g ai/ha, 0 to 100 scale, 0 no effect, 100 complete control
[10] = Postemergence, 2000 g ai/ha, 0 to 100 scale, 0 no effect, 100 complete control
[11] = Preemergence, 500 g ai/ha, visual rating, 0 to 100 scale (0 no effect, 100 complete control)
[12] = Preemergence, 2000 g ai/ha, visual rating, 0 to 100 scale (0 no effect, 100 complete control)
[13] = preemergence, 500 g ai/ha, visual injury, 0 to 100 scale (0 no effect, 100 complete control)
[14] = 125 g ai/ha, scale 0 (no effect) to 100 (complete control), visual, 12 to 14 days, preemergence
[15] = 250 g ai/ha, scale 0 to 100 (0 no effect, 100 complete control), visual, 12 to 14 days, preemergence
[16] = 500 g ai/ha, scale 0 to 100, 0 no effect, 100 complete control
[17] = Postemergence, 250 g ai/ha, scale 0 to 100, 0 no effect, 100 complete control
[18] = Postemergence, 500 g ai/ha, scale 0 to 100, 0 no effect, 100 complete control
[19] = postemergence, 125 g ai/ha, scale 0 to 100
[20] = postemergence, 62 g ai/ha, scale 0 to 100
[21] = 62 g ai/ha, preemergence, scale 0 to 100
[22] = 250 g ai/ha, scale 0-100, preemergence

CCCCOc1cccc(NC(=O)c2cc(C(C)(C)C)nn2CC)c1 [Compound 137]
Crabgrass, Large plant response rating [1, 9]: 30
Plant response rating, Crabgrass, Large [1, 10]: 60
Crabgrass, Large plant response rating [1, 11]: 55
Crabgrass, Large plant response rating [1, 12]: 90
Foxtail, Giant plant response rating [2, 9]: 20
Plant response rating, Foxtail, Giant [2, 10]: 30
Foxtail, Giant plant response rating [2, 11]: 50
Foxtail, Giant plant response rating [2, 12]: 80
Velvetleaf plant response rating [3, 9]: 60
Plant response rating, Velvetleaf [3, 10]: 70
Velvetleaf plant response rating [3, 12]: 35
Velvetleaf plant response rating [3, 13]: 20
Plant response rating (0 = no effect, 100 = complete control), Cupgrass, Woolly ([4]; 62 g ai/ha, preemergence): 0
Plant response rating, Cupgrass, Woolly [4, 14]: 0
Plant response rating, Cupgrass, Woolly [4, 15]: 5
Cupgrass, Woolly plant response rating [4, 16]: 40
Plant response rating (0 = no effect, 100 = complete control), Foxtail, Giant ([5]; 62 g ai/ha, preemergence): 10
Plant response rating, Foxtail, Giant [5, 14]: 50
Plant response rating, Foxtail, Giant [5, 15]: 60
Foxtail, Giant plant response rating [5, 16]: 85
Plant response rating (0 = no effect, 100 = complete control), Morningglory ([6]; 62 g ai/ha, preemergence): 0
Plant response rating, Morningglory [6, 14]: 0
Morningglory plant response rating [6, 16]: 60
Plant response rating (0 = no effect, 100 = complete control), Nutsedge, Yellow ([7]; 62 g ai/ha, preemergence): 0
Plant response rating, Nutsedge, Yellow [7, 14]: 0
Nutsedge, Yellow plant response rating [7, 16]: 0
Plant response rating (0 = no effect, 100 = complete control), Soybean ([8]; 62 g ai/ha, preemergence): 0
Plant response rating, Soybean [8, 14]: 0
Soybean plant response rating [8, 16]: 10

CCn1nc(C(C)(C)C)cc1C(=O)Nc1cc(OC(F)(F)F)ccc1F [Compound 338]
Crabgrass, Large plant response rating [1, 9]: 20
Plant response rating, Crabgrass, Large [1, 10]: 45
Crabgrass, Large plant response rating [1, 12]: 100
Crabgrass, Large plant response rating [1, 13]: 65
Foxtail, Giant plant response rating [2, 9]: 20
Plant response rating, Foxtail, Giant [2, 10]: 30
Foxtail, Giant plant response rating [2, 12]: 100
Foxtail, Giant plant response rating [2, 13]: 80
Velvetleaf plant response rating [3, 9]: 40
Plant response rating, Velvetleaf [3, 10]: 60
Velvetleaf plant response rating [3, 12]: 50
Velvetleaf plant response rating [3, 13]: 20
Plant response rating, Cupgrass, Woolly [4, 17]: 0
Plant response rating, Cupgrass, Woolly [4, 18]: 0
Plant response rating, Cupgrass, Woolly [4, 19]: 0
Plant response rating, Cupgrass, Woolly [4, 20]: 0
Plant response rating, Foxtail, Giant [5, 17]: 10
Plant response rating, Foxtail, Giant [5, 18]: 10
Plant response rating, Foxtail, Giant [5, 19]: 5
Plant response rating, Foxtail, Giant [5, 20]: 5
Plant response rating, Morningglory [6, 17]: 40
Plant response rating, Morningglory [6, 18]: 50
Plant response rating, Morningglory [6, 19]: 0
Plant response rating, Morningglory [6, 20]: 0
Plant response rating, Nutsedge, Yellow [7, 17]: 0
Plant response rating, Nutsedge, Yellow [7, 18]: 0
Plant response rating, Nutsedge, Yellow [7, 19]: 0
Plant response rating, Nutsedge, Yellow [7, 20]: 0
Plant response rating, Soybean [8, 17]: 35
Plant response rating, Soybean [8, 18]: 60
Plant response rating, Soybean [8, 19]: 30
Plant response rating, Soybean [8, 20]: 10

CCN(CC)C(=O)c1cccc(NC(=O)c2sc(C(C)(C)C)nc2C)c1 [Compound 199]
Crabgrass, Large plant response rating [1, 9]: 15
Plant response rating, Crabgrass, Large [1, 10]: 50
Crabgrass, Large plant response rating [1, 12]: 100
Crabgrass, Large plant response rating [1, 13]: 70
Foxtail, Giant plant response rating [2, 9]: 25
Plant response rating, Foxtail, Giant [2, 10]: 65
Foxtail, Giant plant response rating [2, 12]: 100
Foxtail, Giant plant response rating [2, 13]: 80
Velvetleaf plant response rating [3, 9]: 30
Plant response rating, Velvetleaf [3, 10]: 35
Velvetleaf plant response rating [3, 12]: 90
Velvetleaf plant response rating [3, 13]: 35
Plant response rating, Cupgrass, Woolly [4, 21]: 0
Plant response rating, Cupgrass, Woolly [4, 14]: 0
Plant response rating, Cupgrass, Woolly [4, 22]: 40
Cupgrass, Woolly plant response rating [4, 16]: 70
Plant response rating, Foxtail, Giant [5, 21]: 0
Plant response rating, Foxtail, Giant [5, 14]: 10
Plant response rating, Foxtail, Giant [5, 22]: 80
Foxtail, Giant plant response rating [5, 16]: 100
Plant response rating, Morningglory [6, 14]: 50
Plant response rating, Morningglory [6, 22]: 70
Morningglory plant response rating [6, 16]: 70
Plant response rating, Nutsedge, Yellow [7, 21]: 0
Plant response rating, Nutsedge, Yellow [7, 14]: 0
Plant response rating, Nutsedge, Yellow [7, 22]: 0
Nutsedge, Yellow plant response rating [7, 16]: 0
Plant response rating, Soybean [8, 21]: 0
Plant response rating, Soybean [8, 14]: 0
Plant response rating, Soybean [8, 22]: 5
Soybean plant response rating [8, 16]: 30
